Marks after values point to notes of the source that are not given here.
What was measured:
P. multocida 46572 = test: In vivo mouse lung infection challenge model (murine); set-up: species or system CD-1 female mice; conditions: for % Survival: 46572, sc, 20 mg/kg, 240 h
Protocol: The challenge organism was P. multocida 46572. Target challenge concentration was 5×10^2 CFU/mouse. Isolated colonies from overnight growth (37° C. with 5% CO2) on trypticase soy agar (TSA II) blood plates were transferred to room temperature Brain Heart Infusion Broth (BHIB). The broth culture was incubated 3.5-4 hours to approximately mid-log phase of growth, as measured by forward light scatter at 600 nm (OD600, 0.200). The culture was centrifuged to collect the bacterial pellet. The pellet was re-suspended in BHIB and adjusted to provide an approximate concentration of 2.7 log^10 colony forming units (CFU) in 0.04 mL at the highest concentration. The challenge inoculum concentration was confirmed by serial dilutions of the inoculum for CFU enumeration. On Day −5, CD-1 female mice were received. Mice were given standard rodent diet and water ad libitum. On Day 0, bacterial inoculum (0.04 mL) was administered to each mouse (n=36) intranasally. Compounds of the invention were dosed at 20 mg/kg (0.1 mL) in a buffered (˜pH 5.4) propylene glycol, monothioglycerol and water solution by subcutaneous injection. Animals were observed from Days 1-10. The study was terminated on Day 10. In addition, some treatment groups were sampled at 6, 24, and 48 hours post bacterial challenge for RNA sequence analysis of lung tissue.
The murine efficacy model (P. multocida challenge) was optimized, and the treatment group size was powered to be able to observe statistically significant improvement of survival to expected ranges for immunomodulatory compounds. The experimental design was a randomized complete block design. Mice were individually identified and treatment groups comingled within a cage, with every treatment group equally represented across cages. Mortality was the primary variable. Mortality data was analyzed using a generalized mixed model with fixed effect of treatment and random effect of block. Survival time was also analyzed using the SAS PHREG (survival analysis) procedure to examine whether there were significant differences between treatment groups and the control group. Numerous compounds of the invention and M9 (positive control) were tested in this model at a dose of 20 mg/kg (Table 3). Typical percent survival for no treatment control is in the range of 0-20% based on study to study variation in challenge inoculum and rate of infection. […] Mouse survival for M9 was about 90-100%, further supporting its residual antibacterial properties against the bacterial strain. Harmonized survival accounts for % survival relative to vehicle (“−” control) and M9 (“+” control)) survival data (Table 3).

TNF-α = test: Whole blood assay, LPS stimulation, MSD cytokine detection; assay type: cell-based; conditions: Bos taurus, fresh whole bovine blood
IL-1β = test: as above; assay type: cell-based, bovine; conditions: fresh whole bovine blood, LPS stimulation; drug concentration giving overstimulation (OS) of IL-1β
IL-6 = test: as above; assay type: cell-based; conditions: Bos taurus, fresh whole bovine blood
M. haemolytica = test: In-vitro MIC model (CLSI broth micro-dilution); assay type: cell-based, Mannheimia haemolytica
P. multocida = test: In-vitro MIC model (CLSI broth micro-dilution); assay type: cell-based, Pasteurella multocida
S. aureus (29213 ATCC) = test: In-vitro MIC model (CLSI broth micro-dilution); assay type: cell-based
[1] = tested on: BRD pathogens, M. haemolytica and P. multocida; test: In-vitro MIC model, BRD pathogen screening panel; assay type: cell-based, Mannheimia haemolytica; Pasteurella multocida; conditions: at least one BRD strain
[2] = tested on: Lung bacteria isolated at necropsy; test: MIC of recovered isolates, natural bovine respiratory disease study
Protocol: The primary clinical endpoint for efficacy was treatment failure/success over a 14-day observation period. Clinically normal beef calves (150-200 kg) at moderate risk for BRD were dosed on arrival to the feedlot. Animals (N=114/group) received saline (T01), 5 mg/kg M9 (T02) or 10 mg/kg M9 (T03); or Zactran (T04). […] Bacterial isolates were collected at necropsy and MICs were evaluated (Table 4).

[3] = H. somni (25) lung isolates at necropsy
[4] = M. haemolytica (116) lung isolates at necropsy
[5] = P. multocida (33) lung isolates at necropsy

| Compound | % Survival (P. multocida 46572) | IC50 (TNF-α) | IL-1ß OS of LPS (IL-1β) | IC50 (IL-6) | other results |
| --- | --- | --- | --- | --- | --- |
| CC[C@H]1OC(=O)[C@H](C)[C@@H](O)[C@H](C)[C@@H](O[C@@H]2O[C@H](C)C[C@H](NC)[C@H]2Oc2ccc(F)cc2)[C@](C)(O)C[C@@H](C)CN[C@H](C)[C@@H](O)[C@]1(C)O [Example B-4, (2R,3S,4R,5R,8R,10R,11R,12S,13S,14R)-2-ethyl-11-(((2S,3R,4S,6R)-3-(4-fluorophenoxy)-6-methyl-4-(methylamino)tetrahydro-2H-pyran-2-yl)oxy)-3,4,10,13-tetrahydroxy-3,5,8,10,12,14-hexamethyl-1-oxa-6-azacyclopentadecan-15-one] | 0% | 50 µM | 100 µM | 50 µM | clinical efficacy, P. multocida infection in mice (P. multocida 46572; mouse, in vivo): clinically efficacious |
| CC[C@H]1OC(=O)[C@H](C)[C@@H](O)[C@H](C)[C@@H](O[C@@H]2O[C@H](C)C[C@H](N(C)C(=O)N(C)c3ccccc3)[C@H]2Oc2ccc(OC)cc2)[C@](C)(O)C[C@@H](C)CN[C@H](C)[C@@H](O)[C@]1(C)O [Example C-1, 1-((2S,3R,4S,6R)-2-(((2R,3S,4R,5R,8R,10R,11R,12S,13S,14R)-2-ethyl-3,4,10,13-tetrahydroxy-3,5,8,10,12,14-hexamethyl-15-oxo-1-oxa-6-azacyclopentadecan-11-yl)oxy)-3-(4-methoxyphenoxy)-6-methyltetrahydro-2H-pyran-4-yl)-1,3-dimethyl-3-phenylurea] | 33% | 8 µM | 16 µM | 19 µM |  |
| CC[C@H]1OC(=O)[C@H](C)[C@@H](O)[C@H](C)[C@@H](O[C@@H]2O[C@H](C)C[C@H](N(C)C(=O)N(C)c3ccccc3)[C@H]2Oc2ccccc2)[C@](C)(O)C[C@@H](C)CN[C@H](C)[C@@H](O)[C@]1(C)O [Example C-2, 1-((2S,3R,4S,6R)-2-(((2R,3S,4R,5R,8R,10R,11R,12S, 13S, 14R)-2-ethyl-3,4,10,13-tetrahydroxy-3,5,8,10,12,14-hexamethyl-15-oxo-1-oxa-6-azacyclopentadecan-11-yl)oxy)-6-methyl-3-phenoxytetrahydro-2H-pyran-4-yl)-1,3-dimethyl-3-phenylurea] | 54% | 27 µM | 16 µM | 32 µM |  |
| CC[C@H]1OC(=O)[C@H](C)[C@@H](O)[C@H](C)[C@@H](O[C@@H]2O[C@H](C)C[C@H](N(C)C(=O)N(C)C3CC3)[C@H]2Oc2ccccc2)[C@](C)(O)C[C@@H](C)CN(C)[C@H](C)[C@@H](O)[C@]1(C)O [Example C-27] |  |  |  |  | Comparative MIC (M. haemolytica; M. haemolytica 12726): >64 µg/mL; Comparative MIC (M. haemolytica; M. haemolytica 33396): >64 µg/mL; Comparative MIC (M. haemolytica; M. haemolytica 46571, bovine efficacy challenge strain): >64 µg/mL; Comparative MIC (P. multocida; P. multocida 43137): >64 µg/mL; Comparative MIC (P. multocida; P. multocida 46572, murine efficacy challenge strain): >64 µg/mL; Comparative MIC (S. aureus (29213 ATCC)): >64 µg/mL |
| CCCNC[C@]1(O)[C@H](C)O[C@@H](O[C@H]2[C@H](C)[C@@H](O[C@@H]3O[C@H](C)C[C@H](NC)[C@H]3Oc3ccc(F)cc3)[C@](C)(O)C[C@@H](C)CN[C@H](C)[C@@H](O)[C@](C)(O)[C@@H](CC)OC(=O)[C@@H]2C)C[C@@]1(C)OC [Example E-1, (2R,3S,4R,5R,8R,10R,11R,12S,13S,14R)-2-ethyl-11-(((2S,3R,4S,6R)-3-(4-fluorophenoxy)-6-methyl-4-(methylamino)tetrahydro-2H-pyran-2-yl)oxy)-3,4,10-trihydroxy-13-(((2R,4R,5S,6S)-5-hydroxy-4-methoxy-4,6-dimethyl-5-((propylamino)methyl)tetrahydro-2H-pyran-2-yl)oxy)-3,5,8,10,12,14-hexamethyl-1-oxa-6-azacyclopentadecan-15-one] | 57% | 6 µM | 32 µM |  | MIC flag at the example number (Table E) [1]: E-1* (MIC ≤ 64 μg/mL for at least one BRD strain) |
| CCCNC[C@]1(O)[C@H](C)O[C@@H](O[C@H]2[C@H](C)[C@@H](O[C@@H]3O[C@H](C)C[C@H](NC)[C@H]3Oc3ccc(OC)cc3)[C@](C)(O)C[C@@H](C)CN[C@H](C)[C@@H](O)[C@](C)(O)[C@@H](CC)OC(=O)[C@@H]2C)C[C@@]1(C)OC [Example E-2, (2R,3S,4R,5R,8R,10R,11R,12S,13S,14R)-2-ethyl-3,4,10-trihydroxy-13-(((2R,4R,5S,6S)-5-hydroxy-4-methoxy-4,6-dimethyl-5-((propylamino)methyl)tetrahydro-2H-pyran-2-yl)oxy)-11-(((2S,3R,4S,6R)-3-(4-methoxyphenoxy)-6-methyl-4-(methylamino)tetrahydro-2H-pyran-2-yl)oxy)-3,5,8,10,12,14-hexamethyl-1-oxa-6-azacyclopentadecan-15-one] | 36% | 6 µM | 32 µM |  | MIC flag at the example number (Table E) [1]: E-2* (MIC ≤ 64 μg/mL for at least one BRD strain) |
| CCCNC[C@]1(O)[C@H](C)O[C@@H](O[C@H]2[C@H](C)[C@@H](O[C@@H]3O[C@H](C)C[C@H](NC)[C@H]3Oc3ccc(Cl)nc3)[C@](C)(O)C[C@@H](C)CN[C@H](C)[C@@H](O)[C@](C)(O)[C@@H](CC)OC(=O)[C@@H]2C)C[C@@]1(C)OC [Example E-8, (2R,3S,4R,5R,8R,10R,11R,12S,13S,14R)-11-(((2S,3R,4S,6R)-3-((6-chloropyridin-3-yl)oxy)-6-methyl-4-(methylamino)tetrahydro-2H-pyran-2-yl)oxy)-2-ethyl-3,4,10-trihydroxy-13-(((2R,4R,5S,6S)-5-hydroxy-4-methoxy-4,6-dimethyl-5-((propylamino)methyl)tetrahydro-2H-pyran-2-yl)oxy)-3,5,8,10,12,14-hexamethyl-1-oxa-6-azacyclopentadecan-15-one] | 36% | 25 µM | 100 µM | 110 µM |  |
| CCCNC[C@]1(O)[C@H](C)O[C@@H](O[C@H]2[C@H](C)[C@@H](O[C@@H]3O[C@H](C)C[C@H](NC)[C@H]3Oc3ncc(Cl)cn3)[C@](C)(O)C[C@@H](C)CN[C@H](C)[C@@H](O)[C@](C)(O)[C@@H](CC)OC(=O)[C@@H]2C)C[C@@]1(C)OC [Example E-30, (2R,3S,4R,5R,8R,10R,11R,12S,13S,14R)-11-(((2S,3R,4S,6R)-3-((5-chloropyrimidin-2-yl)oxy)-6-methyl-4-(methylamino)tetrahydro-2H-pyran-2-yl)oxy)-2-ethyl-3,4,10-trihydroxy-13-(((2R,4R,5S,6S)-5-hydroxy-4-methoxy-4,6-dimethyl-5-((propylamino)methyl)tetrahydro-2H-pyran-2-yl)oxy)-3,5,8,10,12,14-hexamethyl-1-oxa-6-azacyclopentadecan-15-one] | 22% | 7 µM | 13 µM |  |  |
| CCCNC[C@]1(O)[C@H](C)O[C@@H](O[C@H]2[C@H](C)[C@@H](O[C@@H]3O[C@H](C)C[C@H](NC)[C@H]3Oc3ccc(C#N)cc3)[C@](C)(O)C[C@@H](C)CN[C@H](C)[C@@H](O)[C@](C)(O)[C@@H](CC)OC(=O)[C@@H]2C)C[C@@]1(C)OC [Example E-111, 4-(((2S,3R,4S,6R)-2-(((2R,3S,4R,5R,8R,10R,11R,12S,13S,14R)-2-ethyl-3,4,10-trihydroxy-13-(((2R,4R,5S,6S)-5-hydroxy-4-methoxy-4,6-dimethyl-5-((propylamino)methyl)tetrahydro-2H-pyran-2-yl)oxy)-3,5,8,10,12,14-hexamethyl-15-oxo-1-oxa-6-azacyclopentadecan-11-yl)oxy)-6-methyl-4-(methylamino)tetrahydro-2H-pyran-3-yl)oxy)benzonitrile] | 22% | 9 µM | 80 µM | 90 µM |  |
| CCCN1C[C@H](C)[C@@H](O)[C@](C)(O)[C@@H](CC)OC(=O)[C@H](C)[C@@H](O[C@H]2C[C@@](C)(OC)[C@@H](O)[C@H](C)O2)[C@H](C)[C@@H](O[C@@H]2O[C@H](C)C[C@H](N(C)C)[C@H]2O)[C@](C)(O)C[C@H]1C [gamithromycin (Zactran)] |  |  |  |  | MIC50 [2, 3]: 0.25 µg/mL; MIC90 [2, 3]: 2 µg/mL; MIC50 [2, 4]: 1 µg/mL; MIC90 [2, 4]: >64 µg/mL; MIC50 [2, 5]: 1 µg/mL; MIC90 [2, 5]: >64 µg/mL |

From patent US12390441B2, “Immunomodulating o-het/aryl azalides” (Zoetis Services LLC, priority 2020, dated 2025)
